Measurements: ChEMBL document CHEMBL5604064, “ASAP - DENV-1 NS2B-NS3 protease fluorescence dose response” (2024)
Several values for one entry are separate records, joined by “and”; a condition that tells them apart may be missing. Identical values can stand only once.

Biological target: T1, NS3 protease (dengue virus type 1, UniProt A0A0K0TQ28)
T1 sequence (A0A0K0TQ28 whole entry): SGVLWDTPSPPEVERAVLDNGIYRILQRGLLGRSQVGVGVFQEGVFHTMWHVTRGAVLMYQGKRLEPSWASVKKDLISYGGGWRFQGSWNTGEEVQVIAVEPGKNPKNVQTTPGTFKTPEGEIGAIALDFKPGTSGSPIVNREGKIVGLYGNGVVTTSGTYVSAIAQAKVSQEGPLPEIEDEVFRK
Test: Functional biochemical assay to identify treatments for viral infectious disease that targets Dengue virus type 1 NS2B-NS3 protease. Utilizing a direct enzyme activity measurement method, reading the fluorescence intensity is used to characterize the relative potency of inhibitors as IC50.
Set-up: species or system Nauru/West Pac/1974

Structure (SMILES)	IC50
N=C(N)NCCC[C@H](NC(=O)c1nccs1)C(=O)N[C@@H](CCCCN)C(=O)N[C@@H](C(N)=O)c1ccc(OCc2ccc(C(F)(F)F)cc2)cc1	920 nM and 1.03 µM (2×) and 1 µM and 926 nM and 1.69 µM and 865 nM
N=C(N)NCCC[C@H](NC(=O)[C@H](Cc1ccc(CN)cc1)NC(=O)c1ccccc1)B(O)O	0.31 µM and 0.315 µM
COCCNC(=O)[C@H](Nc1ccc2c(c1)CNC2)c1cc(Cl)cc(C2CC2)c1	> 99.5 µM
O=C(NCC(F)F)[C@H](Nc1ccc2c(c1)CNC2)c1cc(Cl)cc(C2CC2)c1	> 99.5 µM
O=C(Nc1ccc2c(c1)CNCC2)c1cc(Cl)cc2[nH]ncc12	> 99.5 µM
CC(C)(C)c1cc(Br)cc(C(=O)Nc2ccc3c(c2)CNC3)c1	> 99.5 µM
Clc1ccc2[nH]cc(Cc3ccc(-c4nn[nH]n4)cc3)c2c1	62.9 µM
CN1Cc2ccc(NC(=O)c3cc(Cl)cc4[nH]ncc34)cc2C1	> 99.5 µM
O=C(Nc1ccc2c(c1)CNC2)c1cccc(-c2cnco2)c1	20.3 µM
CC(C)NC(=O)[C@H](Nc1ccc2c(c1)CNC2)c1cc(Cl)cc2[nH]ncc12	34.4 µM
Cn1cc2cc(Cl)cc(C(=O)Nc3ccc4c(c3)CNC4)c2n1	> 99.5 µM
O=C(Nc1ccc2c(c1)CNC2)c1cc(Br)cc2ccccc12	83.7 µM
O=C(Nc1ccc2c(c1)CNC2)c1cc(Cl)cc2c1CCC2	> 99.5 µM
CNC(=O)[C@H](Nc1ccc2c(c1)CNC2)c1cc(Cl)cc(C2CC2)c1	> 99.5 µM
O=C1Cc2c(cccc2C(=O)Nc2ccc3c(c2)CNC3)N1	11.3 µM
O=C(Nc1ccc2c(c1)CNC2)c1cc(Br)cc2[nH]c(-c3ccccc3)nc12	1.24 µM
N#C[C@H](Nc1ccc2c(c1)CNC2)c1cc(Cl)cc(C2CC2)c1	> 99.5 µM
O=C(Nc1cc(Cl)cc([C@H]2CN(Cc3ccccc3)C[C@@H]2c2cccc(-c3nn[nH]n3)c2)c1)OCc1ccccc1	6.63 µM
Clc1cc(CNc2ccc3c(c2)CNC3)c2cn[nH]c2c1	30.9 µM
CC(C)c1cc(Br)cc(C(=O)Nc2ccc3c(c2)CNC3)c1	> 99.5 µM
O=C(NC1CCOCC1)[C@H](Nc1ccc2c(c1)CNC2)c1cc(Cl)cc(C2CC2)c1	> 99.5 µM
Cn1cc(CNC(=O)[C@H](Nc2ccc3c(c2)CNC3)c2cc(Cl)cc(C3CC3)c2)cn1	> 99.5 µM
O=C(Nc1cc(Cl)cc(C(=O)Nc2ccc3c(c2)CNC3)c1)OCc1ccccc1	> 99.5 µM
Cn1cc(CCc2nc3c(C(=O)Nc4ccc5c(c4)CNC5)cc(Cl)cc3[nH]2)cn1	21.6 µM
O=C(Nc1ccc2c(c1)CNC2)c1cc(F)cc2[nH]ncc12	68.2 µM

Structure (SMILES)	IC50
Cc1c(C(=O)Nc2cc([C@H]3CCOC3)ccn2)cc(C2CC2)n1C	> 99.5 µM
O=C(Nc1ccc2c(c1)CNC2)c1cc(Cl)cc2ccncc12	> 99.5 µM
O=C1Cc2c(cc(Br)cc2C(=O)Nc2ccc3c(c2)CNC3)N1	84.6 µM
CC(C)NC(=O)[C@H](Nc1ccc2c(c1)CNC2)c1cc(Cl)cc2[nH]c(-c3ccccc3)nc12	7.46 µM and 2.06 µM
O=C(Nc1cc(Cl)cc([C@H](C#CCO)Nc2cccc(-c3nn[nH]n3)c2)c1)OCc1ccccc1	12.7 µM
NCCc1csc2cc(C(=O)Nc3cc([C@H]4CCOC4)ccn3)ccc12	> 99.5 µM
O=C(Nc1ccc2c(c1)CNC2)c1cccc2[nH]c(C(F)(F)F)cc12	> 99.5 µM
O=C(Nc1ccc2c(c1)CNC2)c1cc(Cl)cc2cn[nH]c12	> 99.5 µM
N#Cc1cccc(-c2nc3c(C(=O)Nc4ccc5c(c4)CNC5)cc(F)cc3[nH]2)c1	2.41 µM
NCc1cccc([C@H]2C[C@@H]2c2cc(Cl)cc(NC(=O)OCc3ccccc3)c2)c1	25.3 µM
C=CC[C@H]1NCc2cc(NC(=O)c3cccc4c3CC(=O)N4)ccc21	> 99.5 µM
N#C[C@H](Nc1cccc(-c2nn[nH]n2)c1)c1cc(Cl)cc(NC(=O)OCc2ccccc2)c1	10 µM
O=C(Nc1ccc2c(c1)CNC2)c1cc(Cl)cc2[nH]ncc12	69.2 µM
O=C(Nc1ccc2c(c1)CNC2)c1ccc2[nH]cc(C3CCNCC3)c2c1	31.2 µM
O=C(Nc1ccc2c(c1)CNC2)c1cc(Br)cc2[nH]c(=O)[nH]c12	32.7 µM
N#C[C@H](Nc1ccc2c(c1)CNC2)c1cc(Cl)cc2[nH]ncc12	> 99.5 µM
O=C(Nc1cc(Cl)cc(C(=O)Nc2cccc([C@H]3C[C@H]3C(=O)O)c2)c1)OCc1ccccc1	25.2 µM
Clc1cc([C@@H]2C[C@H]2c2cccc(C3CCNCC3)c2)c2cn[nH]c2c1	5.94 µM
Cc1c(C(=O)Nc2cc(-c3cccnc3)ccn2)cc(C2CC2)n1C	4.83 µM
O=C(NCC(F)F)[C@H](Nc1ccc2c(c1)CNC2)c1cc(F)cc2[nH]ccc12	> 99.5 µM
CC(C)c1nnc(-c2nc3c(C(=O)Nc4ccc5c(c4)CNC5)cc(F)cc3[nH]2)s1	21.8 µM
C=CC[C@H]1NCc2cc(NC(=O)c3cc(Cl)cc4[nH]ncc34)ccc21	> 99.5 µM
Cc1nc2c(C(=O)Nc3ccc4c(c3)CNC4)cc(Cl)cc2[nH]1	> 99.5 µM
O=C(Nc1cc(Cl)cc(-c2ccc3[nH]c(C(=O)O)cc3c2)c1)OCc1ccccc1	5.82 µM
O=C(NCCC1CC1)[C@H](Nc1ccc2c(c1)CNC2)c1cc(Cl)cc(C2CC2)c1	> 99.5 µM

Structure (SMILES)	IC50
NCc1cccc(-c2csc3cc(C(=O)Nc4ccc5c(c4)CNC5)ccc23)c1	29.9 µM
N#Cc1cc2c(cc1NC(=O)c1cc(F)cc3[nH]ncc13)CNC2	59.7 µM
O=C(Nc1ccc2c(c1)CNC2)c1cc(Cl)cc2cc[nH]c12	> 99.5 µM
C=CC[C@H]1NCc2cc(NC(=O)c3cc(F)cc4[nH]ncc34)ccc21	> 99.5 µM
Cc1ccccc1-c1nc2c(C(=O)Nc3ccc4c(c3)CNC4)cc(F)cc2[nH]1	2.19 µM
O=C(Nc1cc(Br)c2c(c1)CNC2)c1cc(F)cc2[nH]ncc12	75.5 µM
C=CC[C@H](Nc1cc(Cl)cc(NC(=O)OCc2ccccc2)c1)c1cccc(-c2nn[nH]n2)c1	6.41 µM
CNC(=O)[C@H](Nc1cc(CN)cc(C(=O)O)c1)c1cc(Cl)cc(C2CC2)c1	> 99.5 µM
O=C(NCC(F)F)[C@H](Nc1ccc2c(c1)CNC2)c1cc(F)cc2[nH]ncc12	> 99.5 µM
O=C1Cc2c(cc(F)cc2C(=O)Nc2ccc3c(c2)CNC3)N1	36.2 µM
O=C(Nc1cc(Cl)cc([C@H]2C[C@@H]2c2cccc(C3CCNCC3)c2)c1)OCc1ccccc1	6.28 µM
O=C(Nc1ccc2c(c1)CNC2)c1ccc2c(C3=CCNCC3)csc2c1	56.3 µM
CC(C)CNC(=O)c1cc(Cl)ccc1NS(=O)(=O)c1ccc(Oc2ccccc2Cl)cc1	14.4 µM
C=CC[C@H]1NCc2cc(N[C@H](C(=O)NC(C)C)c3cc(Cl)cc4[nH]ncc34)ccc21	81.8 µM
O=C(Nc1ccc2c(c1)CNC2)c1cc(F)cc2[nH]c(-c3ccccc3F)nc12	3.86 µM
O=C(NC1CCOCC1)[C@H](Nc1ccc2c(c1)CNC2)c1cc(Cl)cc2[nH]ncc12	> 99.5 µM
CNC(=O)[C@H](Nc1cc(Cl)cc(NC(=O)OCc2ccccc2)c1)c1cccc(-c2nn[nH]n2)c1	46.5 µM
O=C(Nc1ccc2c(c1)CNC2)c1cc(F)c2[nH]ccc2c1	> 99.5 µM
N[C@H]1CC[C@H](c2ccc(NC(=O)c3cc(Cl)cc(NC(=O)OCc4ccccc4)c3)cc2)C1	8.49 µM
Cn1c(=O)[nH]c2c(C(=O)Nc3ccc4c(c3)CNC4)cc(Br)cc21	> 99.5 µM
OCC#C[C@H](Nc1ccc2c(c1)CNC2)c1cc(Cl)cc2[nH]ncc12	19.4 µM
O=C(Nc1ccc2c(c1)CNC2)c1cc(F)cc2c1CCC2	> 99.5 µM
NCc1cccc(NC(=O)c2cc(Cl)cc(NC(=O)OCc3ccccc3)c2)c1	51.1 µM
c1cc(C2CCN(Cc3c[nH]c4ccccc34)CC2)c2ccncc2c1	> 99.5 µM
Cc1cccc(-c2nc3c(C(=O)Nc4ccc5c(c4)CNC5)cc(Cl)cc3[nH]2)c1O	4.26 µM

Structure (SMILES)	IC50
O=C(Nc1ccc2c(c1)CNC2)c1cccc2[nH]c(=O)[nH]c12	65.5 µM
O=C(Nc1ccc2c(c1)CNC2)c1cc(Cl)cc(C(F)(F)F)n1	7.25 µM
O=C(Nc1ccc2c(c1)CNC2)c1cc(F)cc2[nH]c(-c3ccc(F)cc3)nc12	2.8 µM
CCc1cc(C(=O)Nc2cccc(-n3nn[nH]c3=O)c2)sc1-c1ccc(Cl)cc1	11.4 µM
Cc1c(C(=O)Nc2cc(CCCN)ccn2)cc(C2CC2)n1C	25.5 µM
O=C(Nc1ccc2c(c1)CNC2)c1cccc2nc(O)ccc12	> 99.5 µM
NCc1ccc([C@H]2C[C@@H]2c2cc(Cl)cc(NC(=O)OCc3ccccc3)c2)cc1	8.89 µM
COc1cc(-c2cc(NC(=O)c3cc(F)cc4[nH]ncc34)cc3c2CNC3)ccn1	82.8 µM
CCOCCNC(=O)[C@H](Nc1ccc2c(c1)CNC2)c1cc(Cl)cc2[nH]ncc12	> 99.5 µM
O=C(Nc1cc(Cl)cc(C(=O)Nc2ccc3c(c2)CCNC3)c1)OCc1ccccc1	47.7 µM
CC(C)(c1nc2c(C(=O)Nc3ccc4c(c3)CNC4)cc(F)cc2[nH]1)S(C)(=O)=O	16.1 µM
O=C1Cc2cc(C(=O)Nc3ccc4c(c3)CNC4)ccc2N1	5.26 µM and 4.47 µM
NCCc1csc2cc(C(=O)Nc3ccc4c(c3)CNC4)ccc12	> 99.5 µM
Cc1ccc(NC(=O)c2cc(Cl)cc(NC(=O)OCc3ccccc3)c2)cc1CN	> 99.5 µM
O=C(Nc1ccc2c(c1)CNC2)c1cc(F)cc2[nH]c(-c3ccccc3)nc12	3.67 µM
O=C(Nc1ccc2c(c1)CNC2)c1cc(Cl)cc2nn(-c3ccccc3)nc12	2.69 µM
Cc1[nH]c2ccccc2c1CN1CCC(c2c[nH]c3ncccc23)CC1	> 99.5 µM
O=C(Nc1ccc2c(c1)CNC2)c1cccc2cn[nH]c12	49.9 µM
O=C(Nc1cc2c(cc1Br)CNC2)c1cc(F)cc2[nH]ncc12	> 99.5 µM
O=C(Nc1ccc2c(c1)CNC2)c1ccc2[nH]ccc2c1	> 99.5 µM
O=C(Nc1cc2c(c(C3=CCS(=O)(=O)CC3)c1)CNC2)c1cc(F)cc2[nH]ncc12	> 99.5 µM
CNC(=O)[C@H](Nc1cc(CN)cc(-c2nn[nH]n2)c1)c1cc(Cl)cc(C2CC2)c1	> 99.5 µM
O=C(Nc1cc2c(c(C3=CCOCC3)c1)CNC2)c1cc(F)cc2[nH]ncc12	39.9 µM
O=C(Nc1cc(Cl)cc(C(=O)Nc2cccc(-n3nn[nH]c3=O)c2)c1)OCc1ccccc1	11.6 µM
